One series concerns the target Cdk1/cycB (UniProt P06493). The series can be described thus: Cdk1/cycB kinase assay, histone H1 substrate. It counts as biochemical, starfish. Here is the method: The inhibition of Cdk1 can be determined as follows: Cdk1/cycB: Cdk1/cycB are obtained from ProQinase, Freiburg, Germany. Starfish oocytes are induced to enter M phase of the cell cycle with 10 μM 1-methyladenine and frozen in liquid nitrogen and stored at −80° C. […] Briefly, the supernatant from oocytes is equilibrated for 30 min at 4° C. under constant rotation with the p9^CKShs-sepharose beads. The beads are extensively washed and active cdk1/cycB kinase is eluted with purified p9^CKShs (3 mg/ml). […] The assay is carried with slight modifications in 96-well plates at ambient temperature for 20 min. […] The reaction is terminated by addition of 25 μl 0.05 M EDTA pH 7.0. An aliquot of 40 μl is spotted with a multichannel dispenser on Immobilon P membranes mounted in a Millipore Microtiter filter manifold connected to a low vacuum source. After elimination of liquid, the membrane is transferred to a sequence of 4 washing baths containing 0.5% H3PO4 and one with EtOH (shaking incubation for 10 min each), dried, mounted onto a Hewlett Packard TopCount manifold added 10 μl Microscint® and counted. […] Cells were seeded at 2.5×10^7 cells per 150 mm dish and allowed to attach to a 150 mm dish for 1 hr at RT. Media (SF900II containing 10% FBS) is aspirated and recombinant baculovirus; GST-C-Raf-1, v-Ras and v-Src are added at MOI of 3.0, 2.5 and 2.5 receptively in a total volume of 4-5 mL. Cells are incubated for 1 hr at RT and then 15 mL of medium is added. Infected cells are incubated for 48-72 hr at 27° C. Infected Sf21 cells are scraped and collected into a 50 mL tube and centrifuged for 10 min at 4° C. at 1100 g in a Sorvall centrifuge. The cell pellet is washed once with ice cold PBS and lysed with 0.6 mL lysis buffer per 2.5×10^7 cells. Complete lysis of cells is achieved after 10 min on ice with occasional pipetting. […] GST-c-Raf-1 was allowed to bind to the beads at 4° C. for 1 hr with rocking. Bound GST-c-Raf-1 with beads was transferred to a column. The column is washed once with lysis buffer and twice with ice cold Tris buffered saline. Ice cold elution buffer is added and column flow is stopped to allow the free glutathione to disrupt the interaction of GST-c-Raf-1 with glutathione sepharose beads. Fractions (1 mL) are collected into pre-chilled tubes. Each tube contains 10% glycerol (final concentration) to maintain kinase activity during freeze thaw cycles. Purified fractions of GST-c-Raf-1 kinase protein are stored at −80° C.

The next series addresses c-Src kinase (Homo sapiens, UniProt P12931). Briefly: c-Src kinase inhibition. Format: biochemical. An excerpt: An appropriate assay is described in Andrejauskas-Buchdunger et al., Cancer Res. 52, 5353-8 (1992).
The target of series [1] is T1, human VEGF-R2 receptor (KDR) (Homo sapiens, UniProt P35968).
T1 construct: expressed in transfected cells; host or cells: CHO cells
T1 sequence (P35968 20-1356): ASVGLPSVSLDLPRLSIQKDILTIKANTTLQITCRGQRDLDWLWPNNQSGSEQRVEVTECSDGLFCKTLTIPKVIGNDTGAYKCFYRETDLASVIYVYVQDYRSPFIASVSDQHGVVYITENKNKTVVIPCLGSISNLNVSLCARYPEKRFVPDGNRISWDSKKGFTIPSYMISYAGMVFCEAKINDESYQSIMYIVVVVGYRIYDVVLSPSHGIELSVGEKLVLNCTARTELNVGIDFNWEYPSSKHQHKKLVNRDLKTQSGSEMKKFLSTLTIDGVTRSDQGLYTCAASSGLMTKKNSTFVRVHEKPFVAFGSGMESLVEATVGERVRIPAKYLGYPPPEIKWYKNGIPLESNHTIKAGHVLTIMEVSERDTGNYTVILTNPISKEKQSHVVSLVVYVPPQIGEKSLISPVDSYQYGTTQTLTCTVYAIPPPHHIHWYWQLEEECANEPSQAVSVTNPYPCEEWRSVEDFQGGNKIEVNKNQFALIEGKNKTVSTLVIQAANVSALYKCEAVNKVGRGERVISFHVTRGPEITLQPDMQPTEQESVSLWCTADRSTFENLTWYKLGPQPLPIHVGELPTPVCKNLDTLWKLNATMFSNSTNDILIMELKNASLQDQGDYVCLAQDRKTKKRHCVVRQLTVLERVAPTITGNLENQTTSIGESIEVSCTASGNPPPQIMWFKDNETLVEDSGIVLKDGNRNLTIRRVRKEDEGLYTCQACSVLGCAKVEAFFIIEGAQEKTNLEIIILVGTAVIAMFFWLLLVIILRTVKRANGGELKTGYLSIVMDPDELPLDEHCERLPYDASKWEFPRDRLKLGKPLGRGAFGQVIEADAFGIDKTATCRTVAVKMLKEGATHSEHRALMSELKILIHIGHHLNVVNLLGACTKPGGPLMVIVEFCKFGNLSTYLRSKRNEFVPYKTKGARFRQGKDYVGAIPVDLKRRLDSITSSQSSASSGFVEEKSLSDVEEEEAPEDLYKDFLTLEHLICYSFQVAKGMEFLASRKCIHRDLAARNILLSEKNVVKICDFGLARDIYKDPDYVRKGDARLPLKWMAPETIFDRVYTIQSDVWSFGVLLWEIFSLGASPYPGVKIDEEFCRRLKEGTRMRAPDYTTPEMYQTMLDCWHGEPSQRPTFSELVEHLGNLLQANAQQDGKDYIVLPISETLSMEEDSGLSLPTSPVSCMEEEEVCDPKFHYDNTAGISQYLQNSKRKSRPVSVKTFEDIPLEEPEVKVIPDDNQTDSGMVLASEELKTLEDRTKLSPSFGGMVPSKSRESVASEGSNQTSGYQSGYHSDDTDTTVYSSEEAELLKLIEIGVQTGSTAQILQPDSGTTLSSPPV
The series can be described thus: VEGF-induced KDR autophosphorylation in transfected CHO cells, sandwich ELISA. The note with it: Table 5; read-out: KDR, IC50 class. Format: cell-based. Here is the method:
The compounds to be tested are then diluted in culture medium (without FCS, with 0.1% bovine serum albumin) and added to the cells. (Controls comprise medium without test compounds). After two hours' incubation at 37° C., recombinant VEGF is added; the final VEGF concentration is 20 ng/ml). After a further five minutes incubation at 37° C., the cells are washed twice with ice-cold PBS (phosphate-buffered saline) and immediately lysed in 100 μl lysis buffer per well. The lysates are then centrifuged to remove the cell nuclei, and the protein concentrations of the supernatants are determined using a commercial protein assay (BIORAD). The lysates can then either be immediately used or, if necessary, stored at −20° C. A sandwich ELISA is carried out to measure the VEGF-R2 phosphorylation: a monoclonal antibody to VEGF-R2 (for example Mab 1495.12.14; ProQinase, Freiburg, Germany) is immobilized on black ELISA plates (OptiPlate™ HTRF-96 from Packard). The plates are then washed and the remaining free protein-binding sites are saturated with 3% TopBlock® (Juro, Cat. # TB232010) in phosphate buffered saline with Tween 20® (polyoxyethylen(20)-sorbitane monolaurate, ICI/Uniquema) (PBST). The cell lysates (20 μg protein per well) are then incubated in these plates overnight at 4° C. together with an antiphosphotyrosine antibody coupled with alkaline phosphatase (PY20:AP from Zymed). […] The luminescence is measured in a Packard Top Count Microplate Scintillation Counter. The difference between the signal of the positive control (stimulated with VEGF) and that of the negative control (not stimulated with VEGF) corresponds to VEGF-induced VEGF-R2 phosphorylation (=100%). The activity of the tested substances is calculated as percent inhibition of VEGF-induced VEGF-R2 phosphorylation, wherein the concentration of substance that induces half the maximum inhibition is defined as the IC50 (inhibitory dose for 50% inhibition). […] Flt3 kinase inhibition is determined as follows: The baculovirus donor vector pFbacG01 (GIBCO) is used to generate a recombinant baculovirus expressing the amino acid region amino acids 563-993 of the cytoplasmic kinase domain of human Flt-3. The coding sequence for the cytoplasmic domain of Flt-3 is amplified by PCR from human c-DNA libraries (Clontech). The amplified DNA fragments and the pFbacG01 vector are made compatible for ligation by digestion with BamH1 and HindIII. Ligation of these DNA fragments results in the baculovirus donor plasmid Flt-3(1.1). The production of the viruses, the expression of proteins in Sf9 cells and the purification of the GST-fused proteins are performed as follows: Production of virus: Transfer vector (pFbacG01-Flt-3) containing the Flt-3 kinase domain is transfected into the DH10Bac cell line (GIBCO) and the transfected cells are plated on selective agar plates. Colonies without insertion of the fusion sequence into the viral genome (carried by the bacteria) are blue. Single white colonies are picked and viral DNA (bacmid) is isolated from the bacteria by standard plasmid purification procedures. Sf9 or Sf21 cells (American Type Culture Collection) are then transfected in flasks with the viral DNA using Cellfectin reagent. Determination of small scale protein expression in Sf9 cells: Virus containing media is collected from the transfected cell culture and used for infection to increase its titre. Virus containing media obtained after two rounds of infection is used for large-scale protein expression. For large-scale protein expression 100 cm^2 round tissue culture plates are seeded with 5×10^7 cells/plate and infected with 1 mL of virus-containing media (approx. 5 MOIs). After 3 days the cells are scraped off the plate and centrifuged at 500 rpm for 5 min. Cell pellets from 10-20, 100 cm^2 plates, are resuspended in 50 mL of ice-cold lysis buffer (25 mMTris-HCl, pH 7.5, 2 mM EDTA, 1% NP-40, 1 mM DTT, 1 mM PMSF). The cells are stirred on ice for 15 min and then centrifuged at 5000 rpms for 20 min. […]
(In general: An ELISA detects its analyte on a solid surface through an enzyme-linked reagent.)

[2] abbreviates: Table 5, read-out: CDK1/B, IC50 class.
Setting [3] is: Table 5, read-out: c-scr, IC50 class.
Setting [4] is: Table 4, read-out: Cdk1, activity (IC50 for kinase inhibition).

Where two headings read alike, the source gives them in different places.

c-Src kinase, sequence (P12931 whole entry): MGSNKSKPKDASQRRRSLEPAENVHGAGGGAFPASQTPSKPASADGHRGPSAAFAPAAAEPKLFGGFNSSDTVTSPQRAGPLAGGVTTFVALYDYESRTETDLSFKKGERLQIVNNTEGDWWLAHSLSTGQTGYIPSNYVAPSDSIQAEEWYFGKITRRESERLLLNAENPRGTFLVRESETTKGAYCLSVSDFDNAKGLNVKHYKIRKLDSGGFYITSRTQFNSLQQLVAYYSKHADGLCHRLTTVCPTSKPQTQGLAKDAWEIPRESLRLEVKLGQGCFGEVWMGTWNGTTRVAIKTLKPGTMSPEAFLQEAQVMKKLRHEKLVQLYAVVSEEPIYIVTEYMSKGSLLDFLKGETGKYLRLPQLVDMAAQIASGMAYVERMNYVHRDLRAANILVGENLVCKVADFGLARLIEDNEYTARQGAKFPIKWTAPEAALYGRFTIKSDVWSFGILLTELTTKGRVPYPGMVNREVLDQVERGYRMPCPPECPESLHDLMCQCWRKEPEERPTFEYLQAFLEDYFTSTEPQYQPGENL

As for `Cc1nc2c(-c3cccc(N4CC[N+](C)([O-])CC4)c3)cnn2c(N)c1-c1ccc(F)cc1` [Example 106, 6-(4-Fluoro-phenyl)-5-methyl-3-[3-(4-methyl-4-oxy-piperazin-1-yl)-phenyl]-pyrazolo[1,5-a]pyrimidin-7-ylamine], the values for the IC50 (at Cdk1/cycB (setting [2]); at c-Src kinase (setting [3]); in series [1]) were over 10 µM, under 1 µM and over 10 µM, respectively.

For the compound `CN1CCN(c2cccc(-c3cnn4c(N)c(Cc5cccc(Br)c5)cnc34)c2)CC1` [Example 85, 6-(3-Bromo-benzyl)-3-[3-(4-methyl-piperazin-1-yl)-phenyl]pyrazolo[1,5-a]pyrimidin-7-ylamine], the melting point (usually the temperature of the solid-liquid transition) is 170 to 171 °C. On Cdk1/cycB (setting [2]), the IC50 was over 10 µM. Also, at c-Src kinase (setting [3]), the IC50 is under 1 µM. Also, the IC50 in series [1] was over 10 µM.

`Cc1nc2c(-c3ccc(N4CCN(C)CC4)cc3)cnn2c(N)c1-c1ccc(F)c(Cl)c1` [Example 83, 6-(3-Chloro-4-fluoro-phenyl)-5-methyl-3-[4-(4-methyl-piperazin-1-yl)-phenyl]-pyrazolo[1,5-a]pyrimidin-7-ylamine] had a melting point of 264 to 265 °C. The IC50 on Cdk1/cycB (setting [2]) is over 10 µM. Further, the IC50 on c-Src kinase (setting [3]) is under 1 µM. Besides, in series [1], the IC50 is over 10 µM.

With `COc1ccc(-c2cnn3c(N)c(-c4cccc(Cl)c4)c(CF)nc23)cc1OC` [Example 92, 6-(3-Chloro-phenyl)-3-(3,4-dimethoxy-phenyl)-5-fluoromethyl-pyrazolo[1,5-a]pyrimidin-7-ylamine], the melting point is 228 to 230 °C. Moreover, the IC50 on Cdk1/cycB (setting [2]) is over 10 µM. Further, the IC50 in series [1] was 1 to 10 µM.

`Cc1nc2c(-c3cccc(N4CCN(CCO)CC4)c3)cnn2c(N)c1-c1ccc(F)c(Cl)c1` [Example 100, 2-(4-{3-[7-Amino-6-(3-chloro-4-fluoro-phenyl)-5-methyl-pyrazolo[1,5-a]pyrimidin-3-yl]-phenyl}-piperazin-1-yl)-ethanol]: the melting point lay within 104 to 107 °C. The IC50 on Cdk1/cycB (setting [2]) was over 10 µM. Also, the IC50 on c-Src kinase (setting [3]) was under 1 µM. Also, the IC50 in series [1] lay within 1 to 10 µM.

`Cc1nc2c(-c3ccc(N4CCN(C)CC4)cc3)cnn2c(N)c1-c1ccc(F)cc1` [Example 79, 6-(4-Fluoro-phenyl)-5-methyl-3-[4-(4-methyl-piperazin-1-yl)-phenyl]-pyrazolo[1,5-a]pyrimidin-7-ylamine]: the melting point was in the range of 289 to 291 °C. Also, at Cdk1/cycB (setting [2]), the IC50 was over 10 µM. At c-Src kinase (setting [3]), the IC50 is under 1 µM. The IC50 in series [1] lay within 1 to 10 µM.

In turn, `Cc1nc2c(-c3cccc(N4C[C@@H](C)O[C@@H](C)C4)c3)cnn2c(N)c1-c1cccc(Cl)c1` [Example 89, 6-(3-Chloro-phenyl)-3-[3-((2R,6S)-2,6-dimethyl-morpholin-4-yl)-phenyl]-5-methyl-pyrazolo[1,5-a]pyrimidin-7-ylamine] gave a melting point of 165 to 167 °C. Also, the IC50 on Cdk1/cycB (setting [2]) is over 10 µM. Further, at c-Src kinase (setting [3]), the IC50 was under 1 µM. Besides, the IC50 in series [1] lay within 1 to 10 µM.

Regarding `COc1cccc(-c2cnn3c(N)c(-c4cccc(O)c4)cnc23)c1` [Example 60, 3-[7-Amino-3-(3-methoxy-phenyl)-pyrazolo[1,5-a]pyrimidin-6-yl]-phenol], the IC50 at Cdk1/cycB (setting [4]) is under 10 µM.

As to `CN1CCN(c2cccc(-c3cnn4c(N)c(-c5ccccc5Cl)cnc34)c2)CC1` [Example 78, 6-(2-Chloro-phenyl)-3-[3-(4-methyl-piperazin-1-yl)-phenyl]-pyrazolo[1,5-a]pyrimidin-7-ylamine], the melting point fell in the range of 200 to 203 °C. Moreover, the IC50 in series [1] is under 1 µM.

In the case of `COc1ccccc1-c1cnn2c(N)c(-c3cccc(O)c3)cnc12` [Example 48, 3-[7-Amino-3-(2-methoxy-phenyl)-pyrazolo[1,5-a]pyrimidin-6-yl]-phenol], at c-Src kinase (Table 4, read-out: s-Scr, activity (IC50 for kinase inhibition)), the IC50 was under 10 µM.

Take `Cc1nc2c(-c3cccc([N+]4([O-])CC[N+](C)([O-])CC4)c3)cnn2c(N)c1-c1ccc(F)cc1` (centres unmarked) [Example 107, 6-(4-Fluoro-phenyl)-5-methyl-3-[3-(4-methyl-1,4-dioxy-piperazin-1-yl)-phenyl]-pyrazolo[1,5-a]pyrimidin-7-ylamine]: the IC50 on Cdk1/cycB (setting [2]) is over 10 µM; on c-Src kinase (setting [3]), under 1 µM; in series [1], over 10 µM.

Compound `CN1CCN(c2ccc(-c3cnn4c(N)c(-c5ccccc5Cl)cnc34)cc2)CC1` [Example 77, 6-(2-Chloro-phenyl)-3-[4-(4-methyl-piperazin-1-yl)-phenyl]-pyrazolo[1,5-a]pyrimidin-7-ylamine] came in with a melting point of 197 to 200 °C. The IC50 in series [1] was under 1 µM.

For the compound `COc1cc(N2CCN(C)CC2)ccc1-c1cnn2c(N)c(-c3cccc(Cl)c3)c(C)nc12` [Example 75, 6-(3-Chloro-phenyl)-3-[2-methoxy-4-(4-methyl-piperazin-1-yl)-phenyl]-5-methyl-pyrazolo[1,5-a]pyrimidin-7-ylamine], the melting point is 215 to 217 °C. In addition, the IC50 in series [1] fell in the range of 1 to 10 µM.

Take `COc1cc(N2CCN(C)CC2)ccc1-c1cnn2c(N)c(-c3cccc(O)c3)cnc12` [Example 76, 3-{7-Amino-3-[2-methoxy-4-(4-methyl-piperazin-1-yl)-phenyl]-pyrazolo[1,5-a]pyrimidin-6-yl}-phenol]: the melting point fell in the range of 217 to 220 °C. Moreover, the IC50 at Cdk1/cycB (setting [2]) was over 10 µM. Also, in series [1], the IC50 is under 1 µM.

Turning to `Nc1c(-c2cccc(O)c2)cnc2c(-c3cccnc3)cnn12` [Example 46, 3-[7-Amino-3-pyridin-3-yl-pyrazolo[1,5-a]pyrimidin-6-yl]-phenol], the IC50 at Cdk1/cycB (setting [4]) is under 10 µM.

The values are drawn from patent US20090099167A1, “Organic compounds” (Novartis Institutes for Biomedical Research, priority 2004, published 2009).
